Experiment: xn = mol fraction of the nth substance listed
Settings: 101 kPa, Liquid; for viscosity: Capillary tube (Ostwald / Ubbelohde) method; for mass density: Pycnometric method; for speed of sound: Resonance method

C[N+](=O)[O-] [nitromethane] + COCCO
Settings	mass density [kg/m3]	speed of sound [m/s]	viscosity [mPa·s]
293.15 K, x1 = 0.05	970.66	1354.7	–
293.15 K, x1 = 0.0501	–	–	1.618
293.15 K, x1 = 0.0998	976.62	1351.1	–
293.15 K, x1 = 0.1024	–	–	1.527
293.15 K, x1 = 0.2	989.24	1345	–
293.15 K, x1 = 0.2162	–	–	1.341
293.15 K, x1 = 0.2991	–	1340	–
293.15 K, x1 = 0.3	1002.64	–	–
293.15 K, x1 = 0.3003	–	–	1.216
293.15 K, x1 = 0.4	1017.06	1335.5	–
293.15 K, x1 = 0.4076	–	–	1.072
293.15 K, x1 = 0.451	–	–	1.02
293.15 K, x1 = 0.4997	–	–	0.964
293.15 K, x1 = 0.4998	–	1331.9	–
293.15 K, x1 = 0.5	1032.73	–	–
293.15 K, x1 = 0.55	–	–	0.91
293.15 K, x1 = 0.6	1049.94	1329.2	–
293.15 K, x1 = 0.6026	–	–	0.859
293.15 K, x1 = 0.6998	–	–	0.775
293.15 K, x1 = 0.7	1068.86	1327.7	–
293.15 K, x1 = 0.7991	–	–	0.71
293.15 K, x1 = 0.8	–	1327.5	–
293.15 K, x1 = 0.8002	1089.69	–	–
293.15 K, x1 = 0.8999	1112.46	1330.3	–
293.15 K, x1 = 0.9001	–	–	0.663
293.15 K, x1 = 0.941	–	–	0.653
293.15 K, x1 = 0.9503	1124.81	1333.7	–
293.15 K, x1 = 1	1137.63	1340.2	0.648
298.15 K, x1 = 0.05	965.94	1338.1	–
298.15 K, x1 = 0.0506	–	–	1.466
298.15 K, x1 = 0.0998	971.79	1334.8	–
298.15 K, x1 = 0.1037	–	–	1.387
298.15 K, x1 = 0.2	984.22	1329.2	–
298.15 K, x1 = 0.2002	–	–	1.249
298.15 K, x1 = 0.2991	–	1324.1	–
298.15 K, x1 = 0.3	997.42	–	–
298.15 K, x1 = 0.3006	–	–	1.118
298.15 K, x1 = 0.4	1011.62	1319.6	–
298.15 K, x1 = 0.4052	–	–	0.994
298.15 K, x1 = 0.4509	–	–	0.944
298.15 K, x1 = 0.4998	–	1315.6	–
298.15 K, x1 = 0.5	1027.07	–	–
298.15 K, x1 = 0.5016	–	–	0.892
298.15 K, x1 = 0.5497	–	–	0.846
298.15 K, x1 = 0.5991	–	–	0.8
298.15 K, x1 = 0.6	1044.03	1312.6	–
298.15 K, x1 = 0.694	–	–	0.725
298.15 K, x1 = 0.7	1062.69	1310.7	–
298.15 K, x1 = 0.7953	–	–	0.666
298.15 K, x1 = 0.8	–	1310.6	–
298.15 K, x1 = 0.8002	1083.23	–	–
298.15 K, x1 = 0.8997	–	–	0.629
298.15 K, x1 = 0.8999	1105.69	1312.9	–
298.15 K, x1 = 0.9454	–	–	0.621
298.15 K, x1 = 0.9503	1117.91	1315.8	–
298.15 K, x1 = 1	1130.62	1320.4	0.619
303.15 K, x1 = 0.05	961.25	1321.7	–
303.15 K, x1 = 0.0585	–	–	1.328
303.15 K, x1 = 0.0998	966.98	1318.5	–
303.15 K, x1 = 0.1015	–	–	1.271
303.15 K, x1 = 0.1989	–	–	1.149
303.15 K, x1 = 0.2	979.15	1312.9	–
303.15 K, x1 = 0.2991	–	1307.4	–
303.15 K, x1 = 0.3	992.16	–	–
303.15 K, x1 = 0.3091	–	–	1.02
303.15 K, x1 = 0.3978	–	–	0.925
303.15 K, x1 = 0.4	1006.16	1302.5	–
303.15 K, x1 = 0.449	–	–	0.875
303.15 K, x1 = 0.4998	–	1298.1	0.828
303.15 K, x1 = 0.5	1021.4	–	–
303.15 K, x1 = 0.5549	–	–	0.782
303.15 K, x1 = 0.59	–	–	0.756
303.15 K, x1 = 0.6	1038.1	1294.5	–
303.15 K, x1 = 0.6977	–	–	0.684
303.15 K, x1 = 0.7	1056.45	1292.2	–
303.15 K, x1 = 0.7979	–	–	0.632
303.15 K, x1 = 0.8	–	1291.7	–
303.15 K, x1 = 0.8002	1076.63	–	–
303.15 K, x1 = 0.8999	1098.72	1293.4	–
303.15 K, x1 = 0.9037	–	–	0.594
303.15 K, x1 = 0.9503	1110.81	1295.1	–
303.15 K, x1 = 0.9508	–	–	0.585
303.15 K, x1 = 1	1123.6	1298.1	0.584
308.15 K, x1 = 0.05	956.53	1310.2	–
308.15 K, x1 = 0.0671	–	–	1.175
308.15 K, x1 = 0.0998	962.12	1307.4	–
308.15 K, x1 = 0.1029	–	–	1.134
308.15 K, x1 = 0.1995	–	–	1.025
308.15 K, x1 = 0.2	974.11	1301.4	–
308.15 K, x1 = 0.2991	–	1295.7	–
308.15 K, x1 = 0.3	986.95	–	–
308.15 K, x1 = 0.3053	–	–	0.917
308.15 K, x1 = 0.4	1000.76	1290.4	–
308.15 K, x1 = 0.4012	–	–	0.833
308.15 K, x1 = 0.4528	–	–	0.792
308.15 K, x1 = 0.4998	–	1285.6	–
308.15 K, x1 = 0.5	1015.8	–	–
308.15 K, x1 = 0.5078	–	–	0.75
308.15 K, x1 = 0.5514	–	–	0.719
308.15 K, x1 = 0.5981	–	–	0.689
308.15 K, x1 = 0.6	1032.3	1281.5	–
308.15 K, x1 = 0.6981	–	–	0.633
308.15 K, x1 = 0.7	1050.38	1278.6	–
308.15 K, x1 = 0.7954	–	–	0.594
308.15 K, x1 = 0.8	–	1277.7	–
308.15 K, x1 = 0.8002	1070.27	–	–
308.15 K, x1 = 0.8985	–	–	0.572
308.15 K, x1 = 0.8999	1092.11	1278.6	–
308.15 K, x1 = 0.9383	–	–	0.569
308.15 K, x1 = 0.9503	1104.13	1279.6	–
308.15 K, x1 = 1	1116.86	1281.2	0.563
313.15 K, x1 = 0.0498	–	–	1.055
313.15 K, x1 = 0.05	951.39	1293.9	–
313.15 K, x1 = 0.0998	956.87	1291.1	–
313.15 K, x1 = 0.1101	–	–	0.999
313.15 K, x1 = 0.2	968.71	1285.4	–
313.15 K, x1 = 0.2081	–	–	0.911
313.15 K, x1 = 0.2991	–	1279.7	–
313.15 K, x1 = 0.3	981.39	–	–
313.15 K, x1 = 0.3023	–	–	0.835
313.15 K, x1 = 0.4	995.04	1274.2	–
313.15 K, x1 = 0.4004	–	–	0.762
313.15 K, x1 = 0.4571	–	–	0.722
313.15 K, x1 = 0.4998	–	1269.3	–
313.15 K, x1 = 0.5	1009.9	–	–
313.15 K, x1 = 0.5015	–	–	0.693
313.15 K, x1 = 0.5566	–	–	0.659
313.15 K, x1 = 0.599	–	–	0.636
313.15 K, x1 = 0.6	1026.19	1265.1	–
313.15 K, x1 = 0.6995	–	–	0.589
313.15 K, x1 = 0.7	1044.07	1262.1	–
313.15 K, x1 = 0.8	–	1260.9	0.562
313.15 K, x1 = 0.8002	1063.69	–	–
313.15 K, x1 = 0.8851	–	–	0.555
313.15 K, x1 = 0.8999	1085.24	1261.5	–
313.15 K, x1 = 0.9387	–	–	0.553
313.15 K, x1 = 0.9503	1097.15	1262.2	–
313.15 K, x1 = 1	1109.87	1262.8	0.545
